Values after ≈ are worked out from the molar mass of the structure shown. Read-outs that look alike come from different tables or passages of the source. Where a SMILES comes first, the peptide text is derived from it. The star is where a group is joined. Myristoyl = CCCCCCCCCCCCCC(=O)*; Lauroyl = CCCCCCCCCCCC(=O)*; Decanoyl = CCCCCCCCCC(=O)*; Octanoyl = CCCCCCCC(=O)*; Hexanoyl = CCCCCC(=O)*
Assays:
P. aeruginosa ATCC 27853 = format: cell-based, Pseudomonas aeruginosa
Source text: (§1) Bacteria used in this study were Escherichia coli ATCC 25922 and O18K1H7, Staphylococcus aureus ATCC 25923 and ATCC 29213, Pseudomonas aeruginosa ATCC 27853, Staphylococcus epidermidis ATCC 12228, Enterococcus faecalis ATCC 29212, Bacillus subtilis DSM 4181, Listeria monocytogenes DSM 20600, Salmonella typhimurium ATCC 14028, Acinetobacter baumannii ATCC 19606 and 17978, Klebsiella pneumoniae ATCC 13883 and 700603, Stenotrophomonas maltophilia ATCC 13637 and Burkholderia cenocepacia J2315. In addition to reference strains, a clinical isolate of E. faecalis vancomycin-resistant (VREF, strain M), and three clinical isolates of S. aureus methicillin-resistant (MRSA, strains E, G and 11), kindly provided by Dr. Lucilla Dolzani, were used. All MRSA strains are resistant to GEN, IPM, OXA, PEN, CIP and CEF; the S. aureus E strain is also resistant to CLI and ERY. VREF strain is resistant to AMK, ATM, GEN, NET, PEN, TEC, TET, TOB and VAN.
(§2) For the assays, overnight bacterial cultures were diluted 1:30 in fresh Mueller-Hinton Broth (MHB, Difco) and incubated at 37°C with shaking for approximately 2h.
(§3) The antimicrobial activity of USCLs was determined by the Minimum Inhibitory Concentration (MIC) assay, according to the guidelines of CLSI (Clinical & Laboratory Standards Institute) and described in [30, 31]. Briefly, the assays were performed in 96-well microplates in appropriate broth (MHB or SAB). […] For bacteria, a mid-log phase bacterial suspension at 2.5 × 10^5 CFU/mL in MHB was used, and the microplates incubated at 37°C for 24h. The fungal suspension in SAB broth was used at a final concentration of 5 × 10^4 cells/mL. Microplates were then incubated at 30°C for 48h. The MIC value was taken as the lowest concentration of USCLs resulting in the complete inhibition of visible bacterial or fungal growth after appropriate incubation time. Results derive from at least three independent experiments carried out in duplicate.

[1] = RP-HPLC retention time (hydrophobicity); format: physicochemical; details: stated to reliably reflect the hydrophobicity in aqueous solution, assessed and provided by GenScript
Experimental: GenScript (Piscataway, NJ, USA) carried out the custom synthesis of USCLs by using high efficient solid phase peptide synthesis. The fatty acid was conjugated to the N-terminus of the peptide using the same procedure followed to attach protected amino acids to the growing peptide chain for synthesis. The purity (>90%), sequence and molecular weight of USCLs were assessed and provided by GenScript using RP-HPLC and ESI-MS. USCLs were dissolved in sterile water or DMSO at 10 mg/mL, according to manufacturer's indications.

S. aureus ATCC 25923 = format: cell-based, Staphylococcus aureus
Source text: as §1, §2, §3

E. coli ATCC 25922 = format: cell-based, Escherichia coli
Source text: as §1, §2, §3

[2] = MHB, 2.5 × 10^5 CFU/mL, 24h at 37°C, at least three independent experiments in duplicate

Compound	MIC (P. aeruginosa ATCC 27853; ATCC 27853, 24 h)	Retention time [1]	MIC (S. aureus ATCC 25923; ATCC 25923, 24 h)	MIC (E. coli ATCC 25922; ATCC 25922, 24 h)	MIC (P. aeruginosa ATCC 27853; [2])	MIC (S. aureus ATCC 25923; MHB, 2.5 × 10^5 CFU/mL, 24h at 37°C, at least three independent experiments in duplicate, two values when replicates differed by one well)	MIC (E. coli ATCC 25922; [2])
CCCCCCCCCCCC(=O)N[C@@H](CCCNC(=N)N)C(=O)N[C@@H](C)C(=O)N[C@@H](Cc1c[nH]c2ccccc12)C(=O)N[C@@H](CCCNC(=N)N)C(N)=O [Lp-A, Lau-RAWR-NH2] (Lauroyl-RAWR-NH2)	25 mg/L (≈ 32.5 µM)	18.931 min	6.25 µg/mL (≈ 8.13 µM)				
CCCCCCCCCCCC(=O)N[C@@H](CCCNC(=N)N)C(=O)N[C@@H](CS)C(=O)N[C@@H](Cc1c[nH]c2ccccc12)C(=O)N[C@@H](CCCNC(=N)N)C(N)=O [Lp-C, Lau-RCWR-NH2] (Lauroyl-RCWR-NH2)	200 mg/L (≈ 250 µM)	22.492 min	50 µg/mL (≈ 62.4 µM)	200 µg/mL (≈ 250 µM)			
CCCCCCCCCC(=O)N[C@@H](CCCNC(=N)N)C(=O)N[C@@H](Cc1ccccc1)C(=O)N[C@@H](Cc1c[nH]c2ccccc12)C(=O)N[C@@H](CCCNC(=N)N)C(N)=O [Lp-F^Dec, Dec-RFWR-NH2] (Decanoyl-RFWR-NH2)	50 mg/L (≈ 61.2 µM)	22.639 min		25 µg/mL (≈ 30.6 µM)			
CCCCCC(=O)N[C@@H](CCCNC(=N)N)C(=O)N[C@@H](Cc1ccccc1)C(=O)N[C@@H](Cc1c[nH]c2ccccc12)C(=O)N[C@@H](CCCNC(=N)N)C(N)=O [Lp-F^Hex, Hex-RFWR-NH2] (Hexanoyl-RFWR-NH2)		18.675 min			>400 mg/L	>400 µg/mL	>400 µg/mL
CCCCCCCCCCCCCC(=O)N[C@@H](CCCNC(=N)N)C(=O)N[C@@H](Cc1ccccc1)C(=O)N[C@@H](Cc1c[nH]c2ccccc12)C(=O)N[C@@H](CCCNC(=N)N)C(N)=O [Lp-F^Myr, Myr-RFWR-NH2] (Myristoyl-RFWR-NH2)	50 mg/L (≈ 57.3 µM)	26.654 min	6.25 µg/mL (≈ 7.16 µM)				
CCCCCCCC(=O)N[C@@H](CCCNC(=N)N)C(=O)N[C@@H](Cc1ccccc1)C(=O)N[C@@H](Cc1c[nH]c2ccccc12)C(=O)N[C@@H](CCCNC(=N)N)C(N)=O [Lp-F^Oct, Oct-RFWR-NH2] (Octanoyl-RFWR-NH2)	100 mg/L (≈ 127 µM)	17.974 min	100 µg/mL (≈ 127 µM)				
CCCCCCCCCCCC(=O)N[C@@H](CCCNC(=N)N)C(=O)NCC(=O)N[C@@H](Cc1c[nH]c2ccccc12)C(=O)N[C@@H](CCCNC(=N)N)C(N)=O [Lp-G, Lau-RGWR-NH2] (Lauroyl-RGWR-NH2)	50 mg/L (≈ 66.2 µM)	18.415 min	6.25 µg/mL (≈ 8.28 µM)	25 µg/mL (≈ 33.1 µM)			
CCCCCCCCCCCC(=O)N[C@@H](CCCNC(=N)N)C(=O)N[C@@H](Cc1c[nH]cn1)C(=O)N[C@@H](Cc1c[nH]c2ccccc12)C(=O)N[C@@H](CCCNC(=N)N)C(N)=O [Lp-H, Lau-RHWR-NH2] (Lauroyl-RHWR-NH2)	100 mg/L (≈ 120 µM)	21.476 min	6.25 µg/mL (≈ 7.48 µM)	25 µg/mL (≈ 29.9 µM)			
CCCCCCCCCCCC(=O)N[C@@H](CCCNC(=N)N)C(=O)N[C@@H](CC(C)C)C(=O)N[C@@H](Cc1c[nH]c2ccccc12)C(=O)N[C@@H](CCCNC(=N)N)C(N)=O [Lp-L, Lau-RLWR-NH2] (Lauroyl-RLWR-NH2)	25 mg/L (≈ 30.8 µM)	23.079 min		25 µg/mL (≈ 30.8 µM)			
CCCCCCCCCCCC(=O)N[C@@H](CCCNC(=N)N)C(=O)N[C@@H](CO)C(=O)N[C@@H](Cc1c[nH]c2ccccc12)C(=O)N[C@@H](CCCNC(=N)N)C(N)=O [Lp-S, Lau-RSWR-NH2] (Lauroyl-RSWR-NH2)	25 mg/L (≈ 31.8 µM)	16.117 min	6.25 µg/mL (≈ 7.96 µM)	25 µg/mL (≈ 31.8 µM)			
CCCCCCCCCCCC(=O)N[C@@H](CCCNC(=N)N)C(=O)N[C@H](C(=O)N[C@@H](Cc1c[nH]c2ccccc12)C(=O)N[C@@H](CCCNC(=N)N)C(N)=O)C(C)C [Lp-V, Lau-RVWR-NH2] (Lauroyl-RVWR-NH2)		19.317 min	6.25 (6.25) μg/mL	12.5 (12.5) μg/mL			
Lau-RFWR-NH2 [Lp-F^Lau]		23.592 min					

Source: article PMC6383929, “Design, antimicrobial activity and mechanism of action of Arg-rich ultra-short cationic lipopeptides” (PLoS ONE, 2019)
